# Earlier results in US20250268832A1, “Pretomanid Compositions” (The Global Alliance for TB Drug Development, Inc., priority 2019, published 2025).
# Legend:
# [1] = test system: Mycobacterium tuberculosis; details: background statement
# [2] = poorly soluble
# [3] = test system: drug-resistant clinical isolates; details: background statement
structure (smiles),measurement,setting,value
"O=[N+]([O-])c1cn2c(n1)OC[C@@H](OCc1ccc(OC(F)(F)F)cc1)C2 [Pretomanid, (65)-2-nitro-6-{[4-(trifluoromethoxy)benzyl]oxy}-6,7,-dihydro-5H-imidazol[2.1b][1.3]oxazine]",activity in mice,[1],potent bactericidal and sterilizing agent
same,Biopharmaceutics Classification System (BCS) class,[2],Class II/IV
same,activity in vitro against drug-resistant clinical isolates,[3],activity in vitro against all tested drug-resistant clinical isolates
